Biological target: T1, SARM1 (50-724) (Homo sapiens, UniProt Q6SZW1)
T1 construct: Purified SARM1 (50-724) with a final concentration of 2 nM was pre-incubated with a test compound
T1 sequence (Q6SZW1 50-724): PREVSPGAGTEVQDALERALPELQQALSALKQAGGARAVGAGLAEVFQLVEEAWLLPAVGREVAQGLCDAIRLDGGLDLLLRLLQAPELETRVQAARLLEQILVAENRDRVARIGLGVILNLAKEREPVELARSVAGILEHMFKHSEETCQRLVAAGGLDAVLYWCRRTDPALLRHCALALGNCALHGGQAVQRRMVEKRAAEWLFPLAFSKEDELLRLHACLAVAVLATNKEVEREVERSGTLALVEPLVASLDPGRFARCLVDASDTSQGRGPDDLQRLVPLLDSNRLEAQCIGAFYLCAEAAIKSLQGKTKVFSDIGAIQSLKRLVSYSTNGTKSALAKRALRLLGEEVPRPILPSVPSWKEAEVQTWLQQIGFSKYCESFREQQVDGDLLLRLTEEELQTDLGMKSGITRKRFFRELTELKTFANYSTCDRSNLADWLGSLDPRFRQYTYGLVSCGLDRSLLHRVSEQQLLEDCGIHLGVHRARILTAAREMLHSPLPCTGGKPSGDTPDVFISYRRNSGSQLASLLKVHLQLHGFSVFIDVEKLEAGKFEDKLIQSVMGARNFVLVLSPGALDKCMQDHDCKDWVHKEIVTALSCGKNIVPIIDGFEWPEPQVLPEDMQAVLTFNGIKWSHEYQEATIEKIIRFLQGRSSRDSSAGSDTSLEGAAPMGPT
Test: SARM1 (50-724) enzymatic assay (LC-MS/MS)
Assay type: biochemical
Conditions: Purified SARM1 (50-724) 2 nM, NMN as activator, NAD+ as substrate, 1 h at room temperature, read-out: IC50 (SARM1 inhibitory activity)
How it was run: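 Human SARM1 (50-724), 2 nM, pre-incubated 15 min at room temperature with compound in Dulbecco's PBS. Reaction started with 200 µM NMN (activator) plus […] NAD^+ substrate, run 1 h at room temperature, quenched with 70% acetonitrile. Turnover quantified by LC-MS/MS; IC50 reported.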

SMILES	IC50 [nM]
CS(=O)(=O)Cn1cc(-c2nc3cc(C(F)(F)F)ccc3[nH]2)c(-c2cccc(Cl)c2Cl)n1 [Compound 438, 2-(3-(2,3-dichlorophenyl)-1-((methylsulfonyl)methyl)-1H-pyrazol-4-yl)-5-(trifluoromethyl)-1H-benzo[d]imidazole]	> 1000
O=S(=O)(Cc1nnc(-c2nc3cc(Cl)cc(F)c3[nH]2)n1-c1cccc(F)c1Cl)C1CC1 [Compound 194, 5-chloro-2-(4-(2-chloro-3-fluorophenyl)-5-((cyclopropylsulfonyl)methyl)-4H-1,2,4-triazol-3-yl)-7-fluoro-1H-benzo[d]imidazole]	≤ 100
CS(=O)(=O)Cc1nnc(-c2nc3cc(C(F)(F)F)cc(F)c3[nH]2)n1-c1cccc(Cl)c1Cl [Compound 185, 2-(4-(2,3-dichlorophenyl)-5-((methylsulfonyl)methyl)-4H-1,2,4-triazol-3-yl)-4-fluoro-6-(trifluoromethyl)-1H-benzo[d]imidazole]	≤ 100
CSc1nnc(-c2nc3cc(C(F)(F)F)ccc3[nH]2)n1-c1cccc(Cl)c1Cl [Compound 116]	100 to 500
Fc1cc([C@@H]2[C@@H]3COC[C@@H]32)cc2nc(-c3nncn3-c3cnccc3C(F)(F)F)[nH]c12 (single isomer, unassigned) [Compound 349, 7-fluoro-5-(3-oxabicyclo[3.1.0]hexan-6-yl)-2-[4-[4-(trifluoromethyl)-3-pyridyl]-1,2,4-triazol-3-yl]-1H-benzimidazole]	≤ 100
Fc1c(C2CC2)cc(F)c2[nH]c(-c3nncn3-c3cnccc3C(F)(F)F)nc12 [Compound 300, 5-cyclopropyl-4,7-difluoro-2-(4-(4-(trifluoromethyl)pyridin-3-yl)-4H-1,2,4-triazol-3-yl)-1H-benzo[d]imidazole]	≤ 100
CC(C)(C)Oc1cnccc1-n1cnnc1-c1nc2cc(C(F)(F)F)ccc2[nH]1 [Compound 219, 2-(4-(3-(tert-butoxy)pyridin-4-yl)-4H-1,2,4-triazol-3-yl)-5-(trifluoromethyl)-1H-benzo[d]imidazole]	100 to 500
CS(=O)(=O)Cn1ncc(-c2nc3cc(C(F)(F)F)ccc3[nH]2)c1-c1cccc(Cl)c1Cl [Compound 439, 2-(5-(2,3-dichlorophenyl)-1-((methylsulfonyl)methyl)-1H-pyrazol-4-yl)-5-(trifluoromethyl)-1H-benzo[d]imidazole]	100 to 500
FC(F)(F)O[C@@H]1CCOC[C@H]1n1cnnc1-c1nc2cc(C(F)(F)F)ccc2[nH]1 (racemic) [Compound 239, 2-(4-((3R,4R)-4-(trifluoromethoxy)tetrahydro-2H-pyran-3-yl)-4H-1,2,4-triazol-3-yl)-5-(trifluoromethyl)-1H-benzo[d]imidazole]	≤ 100
CC(c1cccnc1)c1cc(F)c2[nH]c(-c3nncn3-c3cnccc3C(F)(F)F)nc2c1 (stereo not shown) [Compound 444, 7-fluoro-5-(1-(pyridin-3-yl)ethyl)-2-(4-(4-(trifluoromethyl)pyridin-3-yl)-4H-1,2,4-triazol-3-yl)-1H-benzo[d]imidazole]	≤ 100
Fc1cc(C(F)(F)F)cc2nc(-c3nncn3-c3cnccc3C(F)(F)F)[nH]c12 [Compound 233, 7-Fluoro-5-(trifluoromethyl)-2-(4-(4-(trifluoromethyl)pyridin-3-yl)-4H-1,2,4-triazol-3-yl)-1H-benzo[d]imidazole]	≤ 100
COc1ncc(Cl)c(-n2cnnc2-c2nc3cc(C(F)(F)F)ccc3[nH]2)n1 [Compound 169, 2-(4-(5-chloro-2-methoxypyrimidin-4-yl)-4H-1,2,4-triazol-3-yl)-5-(trifluoromethyl)-1H-benzo[d]imidazole]	> 1000

Results, then the compound that gave them:

IC50 [nM]	SMILES
500 to 1000	FC(F)(F)c1ccc2[nH]c(-c3cccn3-c3nccnc3C(F)(F)F)nc2c1 [Compound 313]
100 to 500	NC(=O)c1nnc(-c2nc3cc(C(F)(F)F)ccc3[nH]2)n1-c1cccc(Cl)c1Cl [Compound 77]
≤ 100	FC(F)(F)c1ccc2[nH]c(-c3nncn3-c3cnccc3C(F)(F)F)c(-c3ccco3)c2c1 [Compound 376, 3-(2-furyl)-5-(trifluoromethyl)-2-[4-[4-(trifluoromethyl)-3-pyridyl]-1,2,4-triazol-3-yl]-1H-indole]
100 to 500	FC(F)(F)c1ccc2[nH]c(-c3nncn3-c3c(Cl)cccc3-c3ccn[nH]3)nc2c1 [Compound 168, 2-(4-(2-chloro-6-(1H-pyrazol-5-yl)phenyl)-4H-1,2,4-triazol-3-yl)-5-(trifluoromethyl)-1H-benzo[d]imidazole]
≤ 100	CC(C)(C(N)=O)c1ccc2[nH]c(-c3nncn3-c3cccc(Cl)c3Cl)nc2c1 [Example 107]
≤ 100	OCCOc1cc(-n2cnnc2-c2nc3cc(C(F)(F)F)ccc3[nH]2)c(OC(F)(F)F)cc1F [Compound 263, 2-(2-fluoro-4-(trifluoromethoxy)-5-(3-(5-(trifluoromethyl)-1H-benzo[d]imidazol-2-yl)-4H-1,2,4-triazol-4-yl)phenoxy)ethan-1-ol]
≤ 100	FC(F)(F)c1ccc2[nH]c(-c3ccnn3-c3cnccc3C(F)(F)F)nc2c1 [Compound 449, 5-(trifluoromethyl)-2-(1-(4-(trifluoromethyl)pyridin-3-yl)-1H-pyrazol-5-yl)-1H-benzo[d]imidazole]
100 to 500	Cc1cc(C(F)(F)F)c(-n2cnnc2-c2nc3cc(C(F)(F)F)ccc3[nH]2)nn1 [Compound 391, 2-(4-(6-methyl-4-(trifluoromethyl)pyridazin-3-yl)-4H-1,2,4-triazol-3-yl)-5-(trifluoromethyl)-1H-benzo[d]imidazole]
≤ 100	Nc1nnc(-c2nc3cc(C(F)(F)F)ccc3[nH]2)n1-c1cccc(F)c1Cl [Compound 396, 4-(2-chloro-3-fluorophenyl)-5-(5-(trifluoromethyl)-1H-benzo[d]imidazol-2-yl)-4H-1,2,4-triazol-3-amine]
≤ 100	CC(C#N)(CO)c1ccc2[nH]c(-c3nncn3-c3cccc(F)c3Cl)nc2c1 (stereo not shown) [Compound 204, 2-(2-(4-(2-chloro-3-fluorophenyl)-4H-1,2,4-triazol-3-yl)-1H-benzo[d]imidazol-5-yl)-3-hydroxy-2-methylpropanenitrile]
≤ 100	CC(F)(F)c1cc(F)c2[nH]c(-c3nncn3-c3cnccc3C(F)(F)F)nc2c1 [Compound 468, 6-(1,1-difluoroethyl)-4-fluoro-2-(4-(4-(trifluoromethyl)pyridin-3-yl)-4H-1,2,4-triazol-3-yl)-1H-benzo[d]imidazole]
≤ 100	Oc1cc(F)c(Cl)c(-n2cnnc2-c2nc3cc(C(F)(F)F)ccc3[nH]2)c1 [Compound 207, 4-chloro-3-fluoro-5-(3-(5-(trifluoromethyl)-1H-benzo[d]imidazol-2-yl)-4H-1,2,4-triazol-4-yl)phenol]
≤ 100	CC(C)(C)c1ccc2[nH]c(-c3nncn3-c3nc(O)ccc3Cl)nc2c1 [Compound 148, 6-(3-(5-(tert-butyl)-1H-benzo[d]imidazol-2-yl)-4H-1,2,4-triazol-4-yl)-5-chloropyridin-2(1H)-one]
≤ 100	CS(=O)(=O)Cc1nnc(-c2cc3cc(C(F)(F)F)ccc3[nH]2)n1-c1cnccc1C(F)(F)F [Compound 380, 2-(5-((methylsulfonyl)methyl)-4-(4-(trifluoromethyl)pyridin-3-yl)-4H-1,2,4-triazol-3-yl)-5-(trifluoromethyl)-1H-indole]
≤ 100	CC1(O)CC(Cc2nnc(-c3nc4cc(C(F)(F)F)ccc4[nH]3)n2-c2cccc(F)c2Cl)C1 (stereo not shown) [Compound 421, 3-((4-(2-chloro-3-fluorophenyl)-5-(5-(trifluoromethyl)-1H-benzo[d]imidazol-2-yl)-4H-1,2,4-triazol-3-yl)methyl)-1-methylcyclobutan-1-ol]
≤ 100	OCC(F)(F)COc1ccc(OC(F)(F)F)c(-n2cnnc2-c2nc3cc(C(F)(F)F)ccc3[nH]2)n1 [Compound 251, 2,2-difluoro-3-((5-(trifluoromethoxy)-6-(3-(5-(trifluoromethyl)-1H-benzo[d]imidazol-2-yl)-4H-1,2,4-triazol-4-yl)pyridin-2-yl)oxy)propan-1-ol]
100 to 500	CC(C)(N)c1ccc2[nH]c(-c3nncn3-c3cnccc3C(F)(F)F)nc2c1 [Compound 448, 2-[2-[4-[4-(trifluoromethyl)-3-pyridyl]-1,2,4-triazol-3-yl]-1H-benzimidazol-5-yl]propan-2-amine]
≤ 100	OCc1cc(-n2cnnc2-c2nc3cc(C(F)(F)F)ccc3[nH]2)c(OC(F)(F)F)cn1 [Compound 253, (5-(trifluoromethoxy)-4-(3-(5-(trifluoromethyl)-1H-benzo[d]imidazol-2-yl)-4H-1,2,4-triazol-4-yl)pyridin-2-yl)methanol]
≤ 100	CC1(c2ccc3[nH]c(-c4nncn4-c4cccc(Cl)c4Cl)nc3c2)CCO1 (stereo not shown) [Compound 154, 2-(4-(2,3-dichlorophenyl)-4H-1,2,4-triazol-3-yl)-5-(2-methyloxetan-2-yl)-1H-benzo[d]imidazole]
